Reference: article PMC4755858 (Biochemistry, 2016)
Like-named read-outs stand apart in the source and are kept apart here.

Columns and labels:
[1] = tested on: wild-type ydaO riboswitch; test: gel-shift; assay type: binding, Bacillus subtilis; settings: for binding energy weaker than the corresponding deoxy variant: 2’-fluoro versus 2’-deoxy analog (c-dA-AMP or c-di-dAMP); for ΔΔGbind: ΔGbind(analog) − ΔGbind(c-di-AMP); for binding to ydaO riboswitch (in words): competition gel-shift, highest analog concentration tested (≥200 µM)
[2] = biological target: T1, phosphodiesterase protein GdpP (GdpP84–659) (Bacillus subtilis, UniProt P37484); test: HPLC phosphodiesterase assay, degradation rates of c-di-AMP and analogs; assay type: biochemical; settings: for Fold Change: hydrolysis rate relative to c-di-AMP (fold slower); for degradation by GdpP (in words): HPLC assay, incubation up to 24 h
T1 sequence (P37484 84-659): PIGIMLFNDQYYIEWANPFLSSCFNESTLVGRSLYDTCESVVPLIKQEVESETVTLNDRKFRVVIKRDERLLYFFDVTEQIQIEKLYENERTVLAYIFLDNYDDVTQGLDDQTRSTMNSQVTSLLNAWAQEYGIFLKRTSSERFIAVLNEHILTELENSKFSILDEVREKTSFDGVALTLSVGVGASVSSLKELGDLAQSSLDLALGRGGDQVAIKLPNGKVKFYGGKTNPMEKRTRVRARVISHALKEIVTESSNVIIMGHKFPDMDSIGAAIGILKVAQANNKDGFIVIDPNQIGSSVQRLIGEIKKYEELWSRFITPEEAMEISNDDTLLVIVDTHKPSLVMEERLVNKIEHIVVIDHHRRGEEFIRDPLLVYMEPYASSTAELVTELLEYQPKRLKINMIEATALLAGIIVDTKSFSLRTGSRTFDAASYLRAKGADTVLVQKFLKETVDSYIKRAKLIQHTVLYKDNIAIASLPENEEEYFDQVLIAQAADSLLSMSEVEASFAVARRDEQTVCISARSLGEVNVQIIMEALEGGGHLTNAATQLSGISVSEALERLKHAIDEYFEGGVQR

[3] = biological target: ydaO riboswitch ΔSite1 mutant; test: gel-shift binding to ydaO binding-site mutant ΔSite1; settings: for Kd: read-out: Ligand Kd; for Kd / fold loss in affinity compared to native ligand: ΔSite1 construct; for fold loss in affinity compared to native ligand: versus c-di-AMP
[4] = biological target: ydaO riboswitch ΔSite2 mutant; test: gel-shift binding to ydaO binding-site mutant ΔSite2; settings: for Kd: read-out: Ligand Kd; for Kd / fold loss in affinity compared to native ligand: ΔSite2 construct; for fold loss in affinity compared to native ligand: versus c-di-AMP
[5] = biological target: phosphodiesterase protein GdpP (Bacillus subtilis, UniProt P37484); test: competition phosphodiesterase assay; settings: for Fold Change: Ki relative to Km of c-di-AMP (130 µM); for effect on c-di-AMP degradation by GdpP (in words): excess unlabeled competitor analog
Chain of phosphodiesterase protein GdpP (P37484 84-659): as above

[6] = biological target: T1, phosphodiesterase protein GdpP (GdpP84–659); test: steady-state kinetics; assay type: biochemical
[7] = tested on: wild-type ydaO riboswitch; settings: cited from earlier work
[8] = tested on: ydaO riboswitch ΔSite1 mutant; settings: cited from earlier work
[9] = biological target: T1, phosphodiesterase protein GdpP (GdpP84–659); settings: cited from earlier work
[10] = tested on: ydaO riboswitch Site 1U construct; test: gel-shift binding to ydaO G-U mutant Site 1U
[11] = tested on: ydaO riboswitch Site 2U construct; test: gel-shift binding to ydaO G-U mutant Site 2U
[12] = tested on: ydaO riboswitch, both binding sites mutated; test: gel-shift binding to ydaO construct with both binding sites mutated; settings: both binding sites mutated in a single construct
[13] = loss in affinity for wild-type ydaO relative to c-di-AMP

Row | SMILES | ΔΔGbind ([1]; wild-type ydaO) [kcal/mol] | Fold Change [2] | Fold Loss [1, 13] | Ki [5] [µM] | Fold Change [5] | effect on c-di-AMP degradation by GdpP (in words) [5] | other results
1 | Nc1ncnc2c1ncn2[C@@H]1O[C@@H]2COP(=O)(O)O[C@H]3[C@@H](F)[C@H](n4cnc5c(N)ncnc54)O[C@@H]3COP(=O)(O)O[C@H]2[C@H]1O [c-2’F-A-AMP] | 2.3 | 24 |  |  |  |  | Fold Loss [1]: 47; binding energy weaker than the corresponding deoxy variant ([1]; wild-type ydaO): ~0.5 kcal/mol
2 | COC1C2OP(=O)(O)OCC3OC(n4cnc5c(N)ncnc54)C(O)C3OP(=O)(O)OCC2OC1n1cnc2c(N)ncnc21 (centres unmarked) [c-2’OMe-A-AMP] |  | 30 |  |  |  |  | Fold Loss [1]: 620
3 | Nc1ncnc2c1ncn2[C@@H]1O[C@@H]2CO[P@@](=O)(S)O[C@H]3[C@@H](O)[C@H](n4cnc5c(N)ncnc54)O[C@@H]3CO[P@@](=O)(S)O[C@H]2[C@H]1O [c-(RpRp)-di-Aps] | 0.4 | ≥ 4100 | 1.8 | 260 ± 2.7 | 2.0 |  | degradation by GdpP (in words) [2]: No detectable degradation; Kd [3]: 0.0113 ± 0.0008 µM; fold loss in affinity compared to native ligand [3]: 2 fold; Kd [4]: 0.0062 ± 0.0005 µM; fold loss in affinity compared to native ligand [4]: 2 fold; Fold Change ([5]; listed as RpRp): ≤ 2
4 | Nc1ncnc2c1ncn2[C@@H]1O[C@@H]2CO[P@@](=O)(S)O[C@H]3[C@@H](O)[C@H](n4cnc5c(N)ncnc54)O[C@@H]3CO[P@](=O)(S)O[C@H]2[C@H]1O [c-(RpSp)-di-Aps] | 0.6 | ≥ 4100 | 2.9 | 210 ± 17 | 1.6 |  | degradation by GdpP (in words) [2]: No detectable degradation; Kd [3]: 0.0094 ± 0.0011 µM; fold loss in affinity compared to native ligand [3]: 2 fold; Kd [4]: 0.0054 ± 0.0004 µM; fold loss in affinity compared to native ligand [4]: 2 fold; Fold Change ([5]; listed as RpSp): ≤ 2
5 | Nc1ncnc2c1ncn2[C@@H]1O[C@@H]2COP(=O)(O)O[C@H]3[C@@H](O)[C@H](n4cnc5c(=O)[nH]cnc54)O[C@@H]3COP(=O)(O)O[C@H]2[C@H]1O [c-AMP-IMP] | 4.3 | 3.3 |  |  |  |  | 
6 | Nc1ncnc2c1ncn2[C@@H]1O[C@@H]2COP(=O)(O)O[C@H]3C[C@H](n4cnc5c(N)ncnc54)O[C@@H]3COP(=O)(O)O[C@H]2[C@H]1F [c-dA-2’F-A] | 3.7 | ≥ 4100 | 530 | 9.4 ± 0.8 | 0.07 | reduced degradation velocity | improvement in binding energy by replacing a 2’-fluoro substituent with a 2’-deoxy group ([1]; wild-type ydaO): ~1.4 kcal/mol
7 | Nc1ncnc2c1ncn2C1CC2OP(=O)(O)OCC3OC(n4cnc5c(N)ncnc54)C(O)C3OP(=O)(O)OCC2O1 (centres unmarked) [c-dA-AMP] | 1.8 | 1.2 |  |  |  | measurable deficiency in linearization | Fold Loss [1]: 20
8 | Nc1ncnc2c1ncn2[C@@H]1O[C@@H]2COP(=O)(O)O[C@H]3[C@@H](F)[C@H](n4cnc5c(N)ncnc54)O[C@@H]3COP(=O)(O)O[C@H]2[C@H]1F [c-di-2’F-AMP] | 5.1 | ≥ 4100 | 5100 | 26 ± 3.6 | 0.2 | reduced degradation velocity | binding energy weaker than the corresponding deoxy variant ([1]; wild-type ydaO): more than 1.7 kcal/mol
9 | CO[C@@H]1[C@@H]2OP(=O)(O)OC[C@H]3O[C@@H](n4cnc5c(N)ncnc54)[C@H](OC)[C@@H]3OP(=O)(O)OC[C@H]2O[C@H]1n1cnc2c(N)ncnc21 [c-di-2’OMe-AMP] | > 8.8 | ≥ 4100 | > 2.9 × 10^6 | 15 ± 2.5 | 0.12 | reduced degradation velocity | binding to ydaO riboswitch (in words) [1]: no detectable affinity
10 | Nc1ncnc2c1ncn2[C@@H]1O[C@@H]2COP(=O)(O)O[C@H]3[C@@H](O)[C@H](n4cnc5c(N)ncnc54)O[C@@H]3COP(=O)(O)O[C@H]2[C@H]1O [c-di-AMP, (3’-5’)-cyclic diadenosine monophosphate] |  |  |  |  |  |  | Hill coefficient ([1]; c-di-AMP binding curve, wild-type ydaO, cooperative binding model): 1.6; initial rate of hydrolysis ([2]; 100 µM substrate, 1 µM GdpP): 4.1 min⁻¹; degradation of c-di-AMP after 60 min (in words) ([2]; HPLC traces, experimental conditions used): completely degraded; Km ([6]; c-di-AMP as substrate of GdpP): 130 µM; rate of c-di-AMP hydrolysis (kcat) ([6]; steady-state, substrate 3 to 800 µM, 200 nM GdpP): 0.26 ± 0.02 s⁻¹; Vmax, maximum reaction velocity ([6]; used in Ki equation): 15.6 min⁻¹; selectivity of ydaO binding over c-di-GMP and c-AMP-GMP [7]: more than 100,000 fold; binding to Site 2 when Site 1 was mutated (in words) [8]: No measurable binding; rate of c-di-AMP hydrolysis, previously published value [9]: 0.55 ± 0.02 s⁻¹; fold lower affinity than the ΔSite mutants ([10]; Site 1U (G-U wobble) construct): less than 10 fold; Hill coefficient ([10]; Site 1U construct): 1; fold lower affinity than the ΔSite mutants ([11]; Site 2U (G-U wobble) construct): less than 10 fold; Hill coefficient ([11]; Site 2U construct): 1; Kd [3]: 0.0055 ± 0.0003 µM; Hill coefficient ([3]; ΔSite1 mutant): 1; Kd [4]: 0.0033 ± 0.0005 µM; Hill coefficient ([4]; ΔSite2 mutant): 1; fold loss in affinity compared with wild-type ydaO ([4]; ΔSite2 mutant versus wild-type): 6 fold; affinity for the riboswitch (in words) [12]: disrupted c-di-AMP affinity
11 | Nc1nc2c(ncn2[C@@H]2O[C@@H]3COP(=O)(O)O[C@H]4[C@@H](O)[C@H](n5cnc6c(=O)[nH]c(N)nc65)O[C@@H]4COP(=O)(O)O[C@H]3[C@H]2O)c(=O)[nH]1 [c-di-GMP, (3’-5’)-cyclic diguanosine monophosphate, reference compound] | > 10 |  |  |  |  |  | binding to ydaO riboswitch (in words) [1]: no detectable binding
12 | O=c1[nH]cnc2c1ncn2[C@@H]1O[C@@H]2COP(=O)(O)O[C@H]3[C@@H](O)[C@H](n4cnc5c(=O)[nH]cnc54)O[C@@H]3COP(=O)(O)O[C@H]2[C@H]1O [c-di-IMP] | 4.9 | ≥ 4100 | 3600 |  |  |  | 
13 | Nc1ncnc2c1ncn2[C@H]1C[C@@H]2OP(=O)(O)OC[C@H]3O[C@@H](n4cnc5c(N)ncnc54)C[C@@H]3OP(=O)(O)OC[C@H]2O1 [c-di-dAMP] | 3.4 | ≥ 4100 | 290 | 200 ± 18 | 1.5 | reduced degradation velocity | loss in ligand affinity ([7]; previously reported): up to 100 fold
